In patent US20090209605A1, “NEMATICIDAL COMPOSITIONS” (Devgen N.V., priority 2004, published 2009):

Experiments:
Type in all cases: in vivo
[1] = system: sugar beet (variety GEA (KWS)); assay: Pot Assay 3: phytotoxicity, number of sugar beet plants emerged
Experimental: (§1) Each compound or compound mixture as described herein was tested in 4 different rates with 4 replicates per rate. One pot per replicate was used in which 18 beava sugar beet seeds (variety GEA (KWS)) were sown. After crop germination, the number of plants was reduced to 10 plants. The 4 rates added to the soil of the tested compounds or compound mixtures were 0.05 mg, 0.20 mg, 1 mg and 5 mg. These amounts translate to field application rates respectively as 30, 120, 600 and 3000 g per hectare.
Phytotoxicity assessments were carried by assessing any possible effects of the chemicals on the crop, such as chlorosis, yellowing, stunting, in comparison to the untreated control without nematodes.

Heterodera nematode = assay: Pot Assay 3: Heterodera infection of sugar beet, crop vigor and crop height; details: infested soil
From the text: The soil used in this assay originated from a Heterodera nematode infested sugar plot of which the infestation was confirmed by means of several soil analyses. Each pot was filled up with a soil mixture composed as follows: a) the infested soil was constituted by silt loam soil (about 600 g/pot) mixed with sterile peat (about 600 g/pot) and sterile cork (about 200 g/pot); b) the sterile soil was instead constituted only by sterile peat (1200 g/pot) and sterile cork (200 g/pot).
as §1
Efficacy of the compounds described herein as nematicide was measured by visual inspection of the crop vigor and the crop height. The crop vigor evaluation is based on a 0-100 scale, where 0 is “no vigor” and 100 is “maximum vigor”. The crop height development is based on a measurement, in cm, per plant, excluding the root system.
Positive control plants were treated with Oxamyl (Vydate 5 G, 5% gr) at a rate of 40 kg fp per ha. Negative controls involved single negative controls (no compound, with nematode infested soil; referenced as “Untreated 1”) and double negative controls (no compound, sterile soil; referenced as “Untreated 2”).

[2] = system: root-knot nematode (Meloidogyne spp); assay: Nematicide field trial on cucumber: root galling and yield; details: Product Rate 1500 g ai/ha
Experimental: Open ground grown cucumber (Cucumis sativus cv Carine) were grown on sandy soil with a natural root-knot nematode (Meloidogyne spp) population. Soil samples, collected prior to planting, contained on average 8 J2 juveniles per 100 g soil. A program of 4 applications with intervals of about 14 days was started six days after transplantation.
An experimental pattern at Complete Randomized Blocks with four replicas was adopted. Besides the experimental products, each test also included an untreated control and a treatment with the standard commercial product VYDATE 10L (10%) applied in accordance to label instructions.
[…] The level of nematode attack of the root system at the time of harvesting was assessed by means of the lamberti scoring.

Meloidogyne incognita = assay: Root infestation on agar plate: root knot count on potato microplant roots; details: 60 μM in agar, galls counted 5 weeks after inoculation, four replicates
Method in brief: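 Potato cv. Desirée microplants were grown 2-3 weeks on agar at 20 °C, and compound diffused in from DMSO for 2 days (60 μM in agar). Plates were then inoculated with ~400 axenic M. incognita juveniles. Root galls were counted 5 weeks later in the dark at 20 °C, with four replicates per compound and root toxicity noted.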

Meloidogyne nematodes = assay: Pot Assay 2: Meloidogyne infection of tomato, % infestation of roots; details: RATE 0.05 mg; tomato in infested soil
Experimental: The soil used in this assay originated from a plot, heavily infested with Meloidogyne nematodes. Part of this soil was sterilized by autoclaving and was used as negative control. Sandy soil, which was not infested with nematodes, was pursued from a commercial source.
Plastic seedling trays with wells of 60 ml capacity were filled with about 40 ml of soil per well. 5 ml of water per well was used for irrigation.
Compounds as described herein were tested in 4 different rates and with 12 replicates for each concentration. The compounds as described herein were stored as dry films of 4 different concentrations. The day of the application of the compounds, all the dry films were dissolved in 60 ml water and poured into the 12 replicate wells: 5 ml per well. Every tray of 12 wells was identified with a label, indicating compound and concentration used. The 4 final rates in the soil of the tested compound were approximately 0.05 mg, 0.20 mg, 1 mg and 5 mg. These amounts translate to field application rates respectively as 30, 120, 600 and 3000 g per hectare.
3-5 days after application of the tested compound, tomato seeds (cv. Rio Grande) were sown in the wells by hand, at about 2 cm deep. A light cover of vermiculite on the surface was used to avoid dehydration. Plants were irrigated by micro-nebulization 3-4 times per week at a rate of 3 L/m^2, weeded by hand and treated with fertilizers, fungicide and insecticides when needed.
Their resistance against nematode infection was monitored and the efficacy of compounds described herein as a nematicide was measured. Furthermore the phytotoxicity of the test compounds was evaluated.
Efficacy of the compounds described herein as nematicide was measured by giving the roots a percentage of infestation measured as follows. Plants were grown to reach good development of the roots, which corresponds to plants grown to about 10 cm high at about one month after emergence. After removal of the soil from the roots by rinsing with water, the roots were visually inspected and root galls were counted on 4 plants of the set of 12 replicate plants.
Positive control plants were treated with a 10 micromolar concentration of oxamyl (Vydate, 10% SL; the rate of 10 micromolar corresponds to a commercial rate of 20 l/ha), a known nematicide. Negative controls involved double negative controls (no compound, sterile soil), and single negative controls (no compound, with nematode infested soil).

tomato (cv. Rio Grande) = assay: Pot Assay 2: root development (vigor of roots) of tomato; details: RATE 0.05 mg; visual value 0 to 10 (10 equal to control)
Experimental: Phytotoxicity of compounds as described herein when used as a nematicide, was measured as follows. […] At that moment, plant emergence was assessed for the plants treated with any of the compounds as described herein, by counting the number of plants per compound-concentration.
Vigor of roots was also assessed once the plants are well established so as not to loose plants. To assess vigor of the plants or roots, a visual value ranging from 0 to 10 (0 no vigor, 10 equal to control) was scored per compound-concentration.

Compound: CCCCc1c(C)nc(NCC)nc1OS(=O)(=O)N(C)C [XLIII]
- # crops emerged (max 18) ([1]; Rate 1 mg): 18
- # crops emerged (max 18) ([1]; Rate 5 mg): 18
- crop height (cm) (Heterodera nematode; Rate 1 mg): 14 cm
- crop vigor (max 100%) (Heterodera nematode; Rate 1 mg): 80%
- crop height (cm) (Heterodera nematode; Rate 5 mg): 15 cm
- crop vigor (max 100%) (Heterodera nematode; Rate 5 mg): 100%
- Average yield of marketable fruits [2]: 8.7 kg/plant/pot
- Average root galling ([2]; 0-5 Lamberti scale): 1.5
- Root knot count, average of the replicate counts (Meloidogyne incognita): 8
- % INF. (% Infestation) (Meloidogyne nematodes): 1.3%
- ROOT DEV. (tomato (cv. Rio Grande)): 7.8
